Values of other authors, collected in patent US20050043329A1, “Crystalline forms of valacyclovir hydrochloride” (priority 2002, published 2005).

Experiments:
[1] = after oral administration in healthy adults
[2] = after oral administration

CC(C)[C@H](N)C(=O)OCCOCn1cnc2c(=O)[nH]c(N)nc21 [valacyclovir, 1-valine, 2-[(2-amino-1,6-dihydro-6-oxo-9H-purin-9-yl)methoxy]ethyl ester]
conversion to acyclovir [1]: converted rapidly and virtually completely
absorption from the gastrointestinal tract [2]: rapidly absorbed
